Reference: PubChem BioAssay AID1919010 (Molecular Pharmacology Branch, DTP, NCI, 2023)
“And” between values parts separate entries of the source, which are not always exact repeats. Equal values may be shown once.

Tested on: Hs578T complex spheroid growth, percent test/control
Test: Anticancer human tumor Hs578T cell line growth inhibition [AhR];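 further: luminescent viability signal as a proxy for spheroid growth; spheroids exposed to agents for one week after three days of growth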
Details: for viability, T/C: stronger effect = lower value; active means viability on the fitted dose curve at most 10% of control; inactive means the rest
In short: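 Spheroids combined tumor cells with HUVEC endothelial cells and human MSCs as stroma. AhR antagonists were paired with standard or investigational drugs, each dosed in half-log steps down from near clinical Cmax, or from 10 microM where Cmax was unknown.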

[1] = curve of first compound, second compound 0.1 µM
[2] = curve of first compound, second compound 0.316 µM
[3] = curve of first compound, second compound 1 µM
[4] = curve of first compound, second compound 3.16 µM
[5] = curve of first compound, second compound 10 µM
[6] = second compound 0.1 µM, first compound 0.000316 µM
[7] = second compound 0.1 µM, first compound 0.001 µM
[8] = second compound 0.1 µM, first compound 0.00316 µM
[9] = second compound 0.1 µM, first compound 0.01 µM
[10] = second compound 0.1 µM, first compound 0.0316 µM
[11] = second compound 0.1 µM, first compound 0.1 µM
[12] = second compound 0.316 µM, first compound 0.000316 µM
[13] = second compound 0.316 µM, first compound 0.001 µM
[14] = second compound 0.316 µM, first compound 0.00316 µM
[15] = second compound 0.316 µM, first compound 0.01 µM
[16] = second compound 0.316 µM, first compound 0.0316 µM
[17] = second compound 0.316 µM, first compound 0.1 µM
[18] = second compound 1 µM, first compound 0.000316 µM
[19] = second compound 1 µM, first compound 0.001 µM
[20] = second compound 1 µM, first compound 0.00316 µM
[21] = second compound 1 µM, first compound 0.01 µM
[22] = second compound 1 µM, first compound 0.0316 µM
[23] = second compound 1 µM, first compound 0.1 µM
[24] = second compound 3.16 µM, first compound 0.000316 µM
[25] = second compound 3.16 µM, first compound 0.001 µM
[26] = second compound 3.16 µM, first compound 0.00316 µM
[27] = second compound 3.16 µM, first compound 0.01 µM
[28] = second compound 3.16 µM, first compound 0.0316 µM
[29] = second compound 3.16 µM, first compound 0.1 µM
[30] = second compound 10 µM, first compound 0.000316 µM
[31] = second compound 10 µM, first compound 0.001 µM
[32] = second compound 10 µM, first compound 0.00316 µM
[33] = second compound 10 µM, first compound 0.01 µM
[34] = second compound 10 µM, first compound 0.0316 µM
[35] = second compound 10 µM, first compound 0.1 µM

O=C(C=Cn1cnc(-c2cc(C(F)(F)F)cc(C(F)(F)F)c2)n1)NNc1cnccn1 + Cc1cncc(-c2nc(NCCc3c[nH]c4ccccc34)c3ncn(C(C)C)c3n2)c1
active: viability, T/C (second compound 10 µM, first compound 0.00949 µM) 6.63% | viability, T/C (second compound 10 µM, first compound 0.03 µM) 4.78% | viability, T/C (second compound 10 µM, first compound 0.0949 µM) 2.83% | viability, T/C (second compound 10 µM, first compound 0.3 µM) 1.17% | viability, T/C (second compound 10 µM, first compound 0.949 µM) 1.46% | viability, T/C (second compound 10 µM, first compound 3 µM) 1.56%
0.148 µM: IC50 [4]
0.346 µM: IC50 [3]
< 0.00949 µM: IC50 [5]
0.352 µM: IC50 [2]
0.402 µM: IC50 [1]
inactive: viability, T/C (second compound 0.1 µM, first compound 0.00949 µM) 113% | viability, T/C (second compound 0.1 µM, first compound 0.03 µM) 100% | viability, T/C (second compound 0.1 µM, first compound 0.0949 µM) 93.7% | viability, T/C (second compound 0.1 µM, first compound 0.3 µM) 61.6% | viability, T/C (second compound 0.1 µM, first compound 0.949 µM) 19.2% | viability, T/C (second compound 0.1 µM, first compound 3 µM) 19.4% | viability, T/C (second compound 0.316 µM, first compound 0.00949 µM) 110% | viability, T/C (second compound 0.316 µM, first compound 0.03 µM) 110% | viability, T/C (second compound 0.316 µM, first compound 0.0949 µM) 96.4% | viability, T/C (second compound 0.316 µM, first compound 0.3 µM) 55% | viability, T/C (second compound 0.316 µM, first compound 0.949 µM) 21.9% | viability, T/C (second compound 0.316 µM, first compound 3 µM) 19.1% | viability, T/C (second compound 1 µM, first compound 0.00949 µM) 101% | viability, T/C (second compound 1 µM, first compound 0.03 µM) 103% | viability, T/C (second compound 1 µM, first compound 0.0949 µM) 93.2% | viability, T/C (second compound 1 µM, first compound 0.3 µM) 55.3% | viability, T/C (second compound 1 µM, first compound 0.949 µM) 17.2% | viability, T/C (second compound 1 µM, first compound 3 µM) 19.2% | viability, T/C (second compound 3.16 µM, first compound 0.00949 µM) 84.6% | viability, T/C (second compound 3.16 µM, first compound 0.03 µM) 71.6% | viability, T/C (second compound 3.16 µM, first compound 0.0949 µM) 59.4% | viability, T/C (second compound 3.16 µM, first compound 0.3 µM) 39% | viability, T/C (second compound 3.16 µM, first compound 0.949 µM) 16% | viability, T/C (second compound 3.16 µM, first compound 3 µM) 14.6%

CC[C@@]1(O)C(=O)OCc2c1cc1n(c2=O)Cc2cc3c(CN(C)C)c(O)ccc3nc2-1 + CC(CO)NC(=O)c1cc(-c2ccc(Cl)cc2)nn(-c2cnn(C)c2)c1=O
inactive: viability, T/C [6] 120% | viability, T/C [7] 115% | viability, T/C [8] 114% | viability, T/C [9] 103% | viability, T/C [10] 83.9% | viability, T/C [11] 82% | viability, T/C [12] 112% | viability, T/C [13] 110% | viability, T/C [14] 115% | viability, T/C [15] 98.9% | viability, T/C [16] 89.6% | viability, T/C [17] 84% | viability, T/C [18] 126% | viability, T/C [19] 123% | viability, T/C [20] 120% | viability, T/C [21] 109% | viability, T/C [22] 91.4% | viability, T/C [23] 103% | viability, T/C [24] 115% | viability, T/C [25] 118% | viability, T/C [26] 132% | viability, T/C [27] 93.8% | viability, T/C [28] 82.9% | viability, T/C [29] 86.8% | viability, T/C [30] 110% | viability, T/C [31] 117% | viability, T/C [32] 110% | viability, T/C [33] 103% | viability, T/C [34] 84.5% | viability, T/C [35] 83.7%
> 0.1 µM: IC50 [1] | IC50 [2] | IC50 [3] | IC50 [4] | IC50 [5]

NS(=O)(=O)OCC1CC(n2ccc3c(NC4CCc5ccccc54)ncnc32)CC1O (centres undefined)
inactive: viability, T/C (compound 0.0316 µM) 105% (2×) and 111% | viability, T/C (compound 0.1 µM) 91.6% and 81.1% and 96.8% | viability, T/C (compound 0.316 µM) 96.3% and 80.9% and 75.9% | viability, T/C (compound 1 µM) 61.7% and 50.2% and 53.7% | viability, T/C (compound 3.16 µM) 41% and 40.2% and 31.6% | viability, T/C (compound 10 µM) 36.6% and 31.7% and 31.8%
1.85 µM and 1.52 µM and 1.09 µM: IC50 (curve of compound)

O=C(C=Cc1cccc(S(=O)(=O)Nc2ccccc2)c1)NO + Cc1ccccc1N=Nc1ccc(NC(=O)c2ccnn2C)c(C)c1
1.5 µM: IC50 [5]
1.78 µM: IC50 [2]
1.77 µM: IC50 [4]
active: viability, T/C (second compound 0.1 µM, first compound 10 µM) 0.74% | viability, T/C (second compound 0.316 µM, first compound 10 µM) 0.66% | viability, T/C (second compound 1 µM, first compound 10 µM) 0.82% | viability, T/C (second compound 3.16 µM, first compound 10 µM) 1.13% | viability, T/C (second compound 10 µM, first compound 10 µM) 1.32%
1.85 µM: IC50 [1]
inactive: viability, T/C [10] 99% | viability, T/C [11] 107% | viability, T/C (second compound 0.1 µM, first compound 0.316 µM) 94% | viability, T/C (second compound 0.1 µM, first compound 1 µM) 77.5% | viability, T/C (second compound 0.1 µM, first compound 3.16 µM) 26.2% | viability, T/C [16] 105% | viability, T/C [17] 108% | viability, T/C (second compound 0.316 µM, first compound 0.316 µM) 94% | viability, T/C (second compound 0.316 µM, first compound 1 µM) 74% | viability, T/C (second compound 0.316 µM, first compound 3.16 µM) 26.9% | viability, T/C [22] 109% | viability, T/C [23] 104% | viability, T/C (second compound 1 µM, first compound 0.316 µM) 96.5% | viability, T/C (second compound 1 µM, first compound 1 µM) 77.6% | viability, T/C (second compound 1 µM, first compound 3.16 µM) 26.9% | viability, T/C [28] 93.5% | viability, T/C [29] 87.2% | viability, T/C (second compound 3.16 µM, first compound 0.316 µM) 98.5% | viability, T/C (second compound 3.16 µM, first compound 1 µM) 71.9% | viability, T/C (second compound 3.16 µM, first compound 3.16 µM) 26.3% | viability, T/C [34] 64.2% | viability, T/C [35] 67.2% | viability, T/C (second compound 10 µM, first compound 0.316 µM) 64% | viability, T/C (second compound 10 µM, first compound 1 µM) 63.2% | viability, T/C (second compound 10 µM, first compound 3.16 µM) 25.9%
1.86 µM: IC50 [3]

CC[C@@]1(O)C(=O)OCc2c1cc1n(c2=O)Cc2cc3c(CN(C)C)c(O)ccc3nc2-1 + Cc1ccccc1N=Nc1ccc(NC(=O)c2ccnn2C)c(C)c1
> 0.1 µM: IC50 [1] | IC50 [2] | IC50 [3] | IC50 [4]
0.0765 µM: IC50 [5]
inactive: viability, T/C [6] 101% | viability, T/C [7] 106% | viability, T/C [8] 89.4% | viability, T/C [9] 73.3% | viability, T/C [10] 69.1% | viability, T/C [11] 69.2% | viability, T/C [12] 108% | viability, T/C [13] 104% | viability, T/C [14] 89.9% | viability, T/C [15] 80.7% | viability, T/C [16] 78.3% | viability, T/C [17] 68.3% | viability, T/C [18] 99.2% | viability, T/C [19] 110% | viability, T/C [20] 96% | viability, T/C [21] 79.8% | viability, T/C [22] 71.7% | viability, T/C [23] 61.7% | viability, T/C [24] 94.5% | viability, T/C [25] 90.8% | viability, T/C [26] 83.1% | viability, T/C [27] 66.8% | viability, T/C [28] 63.4% | viability, T/C [29] 55.9% | viability, T/C [30] 65.3% | viability, T/C [31] 61.3% | viability, T/C [32] 65.6% | viability, T/C [33] 59.6% | viability, T/C [34] 50.4% | viability, T/C [35] 50.1%

CC1COCCN1c1cc(-c2ccnn2C)c2ccnc(-c3ccn[nH]3)c2n1 (centres undefined)
0.658 µM and 0.326 µM and 0.298 µM: IC50 (curve of compound)
inactive: viability, T/C (compound 0.00316 µM) 109% and 104% and 102% | viability, T/C (compound 0.01 µM) 105% and 104% and 114% | viability, T/C (compound 0.0316 µM) 97.8% and 102% and 95.5% | viability, T/C (compound 0.1 µM) 78.7% and 81.3% and 77.2% | viability, T/C (compound 0.316 µM) 60.4% and 51% and 48.1% | viability, T/C (compound 1 µM) 44.3% and 36.2% and 37.9%
